Assay results published in patent publication US11851406B2, “Positive allosteric modulators of the muscarinic acetylcholine receptor M1” (Vanderbilt University, priority 2018, dated 2023).
pEC50: −log10 of the molar value.

Legend:
human mAChR M1 [1] = biological target: T1, human mAChR M1 (Homo sapiens, UniProt P11229); assay: mAChR M1 cell-based functional assay (calcium mobilization), PAM activity: increase in the EC20 acetylcholine response; conditions: CHO-K1 cells expressing hM1; calcium flux (Fluo-4); potentiation of EC20 acetylcholine response
T1 sequence (P11229 1-460): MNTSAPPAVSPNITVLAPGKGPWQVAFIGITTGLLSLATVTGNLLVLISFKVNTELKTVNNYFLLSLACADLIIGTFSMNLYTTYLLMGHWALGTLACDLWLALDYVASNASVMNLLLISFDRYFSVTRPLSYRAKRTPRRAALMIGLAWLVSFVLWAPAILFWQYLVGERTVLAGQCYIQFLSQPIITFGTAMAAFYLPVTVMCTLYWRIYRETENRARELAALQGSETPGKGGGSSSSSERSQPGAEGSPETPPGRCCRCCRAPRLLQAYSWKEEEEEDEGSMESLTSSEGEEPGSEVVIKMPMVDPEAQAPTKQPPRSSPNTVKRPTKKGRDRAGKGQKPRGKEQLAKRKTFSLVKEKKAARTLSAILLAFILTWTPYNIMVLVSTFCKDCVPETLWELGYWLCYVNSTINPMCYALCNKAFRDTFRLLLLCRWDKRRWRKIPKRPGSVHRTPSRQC
How it was run: (§1)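 Calcium mobilization in CHO-K1 cells stably expressing hM1, Fluo-4 loaded; 11-point 1:3 compound series added at 4 s, acetylcholine EC20 at 144 s, kinetic fluorescence ratio at 1 Hz. Agonism: rise on compound alone, Emax relative to acetylcholine maximum; PAM: potentiation of EC20 response; four-parameter logistic fits.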

human mAChR M1 [2] = biological target: T1, human mAChR M1; assay: mAChR M1 cell-based functional assay (calcium mobilization), agonist activity upon compound addition alone; conditions: CHO-K1 cells expressing hM1; for pEC50: calcium mobilization upon compound addition, no acetylcholine; for Emax: compound alone, relative to the maximum for acetylcholine
How it was run: as §1

Row | Structure (SMILES) | Emax (human mAChR M1 [1]) | pEC50 (human mAChR M1 [2]) | Emax (human mAChR M1 [2]) | pEC50 (human mAChR M1 [1])
1 | Cc1ccc(Cc2cc(C(=O)N[C@H]3CCCC[C@@H]3O)nc(-c3ccn(C)n3)c2C)cn1 [Compound 66, N-((1S,2S)-2-hydroxycyclohexyl)-5-methyl-6-(1-methyl-1H-pyrazol-3-yl)-4-((6-methylpyridin-3-yl)methyl)picolinamide] | 66% | < 5.00 | < 5% | 
2 | Cc1c(Cc2ccc(-c3ccn(C)n3)cc2)cc(C(=O)N[C@H]2CCC[C@@H]2O)nc1-c1ccn(C)n1 [Compound 12, N-((1S,2S)-2-hydroxycyclopentyl)-5-methyl-6-(1-methyl-1H-pyrazol-3-yl)-4-(4-(1-methyl-1H-pyrazol-3-yl)benzyl)picolinamide] | 86% | < 5.00 | 6% | 5.71
3 | Cn1ccc(-c2ccc(Cc3cc(C(=O)N[C@H]4CCC[C@@H]4O)nc(-n4cccn4)c3)cc2)n1 [Compound 33, N-((1S,2S)-2-hydroxycyclopentyl)-4-(4-(1-methyl-1H-pyrazol-3-yl)benzyl)-6-(1H-pyrazol-1-yl)picolinamide] | 69% | < 5.00 | < 5% | 5.26
4 | Cn1cc(-c2cc(Cc3ccc(-c4ccn(C)n4)cc3)cc(C(=O)N[C@H]3CCCC[C@@H]3O)n2)cn1 [Compound 40, N-((1S,2S)-2-hydroxycyclohexyl)-4-(4-(1-methyl-1H-pyrazol-3-yl)benzyl)-6-(1-methyl-1H-pyrazol-4-yl)picolinamide] | 57% | < 5.00 | < 5% | 5.03
5 | Cc1c(Cc2ccc(-n3cccn3)cc2)cc(C(=O)NC[C@@H]2CCCO2)nc1-c1ccn(C)n1 [Compound 62, (S)-4-(4-(1H-pyrazol-1-yl)benzyl)-5-methyl-6-(1-methyl-1H-pyrazol-3-yl)-N-((tetrahydrofuran-2-yl)methyl)picolinamide] | 77% | < 5.00 | < 5% | 5.33
6 | Cc1c(Cc2ccc(-c3ccn(C)n3)cc2)cc(C(=O)N[C@H]2CC[C@@H]2O)nc1-c1ccn(C)n1 [Compound 13, N-((1S,2S)-2-hydroxycyclobutyl)-5-methyl-6-(1-methyl-1H-pyrazol-3-yl)-4-(4-(1-methyl-1H-pyrazol-3-yl)benzyl)picolinamide] | 80% | < 5.00 | < 5% | 5.10
7 | Cc1c(Cc2ccc(-c3ccn(C)n3)cc2)cc(C(=O)NC2CCOCC2)nc1-n1cccn1 [Compound 42, 5-methyl-4-(4-(1-methyl-1H-pyrazol-3-yl)benzyl)-6-(1H-pyrazol-1-yl)-N-(tetrahydro-2H-pyran-4-yl)picolinamide] | 83% | < 5.00 | < 5% | 
8 | Cn1ccc(-c2ccc(Cc3cc(C(=O)NC4CC5(COC5)C4)nc(-n4cccn4)c3)cc2)n1 [Compound 31, 4-(4-(1-methyl-1H-pyrazol-3-yl)benzyl)-6-(1H-pyrazol-1-yl)-N-(2-oxaspiro[3.3]heptan-6-yl)picolinamide] | 56% | < 5.00 | < 5% | 
9 | Cn1cc(-c2cc(Cc3ccc(-c4ccn(C)n4)cc3)cc(C(=O)N[C@H]3CCOC[C@@H]3O)n2)cn1 [Compound 39, N-((3R,4S)-3-hydroxytetrahydro-2H-pyran-4-yl)-4-(4-(1-methyl-1H-pyrazol-3-yl)benzyl)-6-(1-methyl-1H-pyrazol-4-yl)picolinamide] | 57% | < 5.00 | < 5% | 5.55
10 | Cn1ccc(-c2ccc(Cc3cc(C(=O)N[C@H]4CCCC[C@@H]4O)nc(-c4ccn(C)n4)c3)cc2)n1 [Compound 34, N-((1S,2S)-2-hydroxycyclohexyl)-6-(1-methyl-1H-pyrazol-3-yl)-4-(4-(1-methyl-1H-pyrazol-3-yl)benzyl)picolinamide] | 63% | < 5.00 | < 5% | 5.69
11 | Cn1cc(-c2ccc(Cc3cc(C(=O)NC4CCOCC4)nc(-c4ccn(C)n4)c3)cn2)cn1 [Compound 4, 6-(1-methyl-1H-pyrazol-3-yl)-4-((6-(1-methyl-1H-pyrazol-4-yl)pyridin-3-yl)methyl)-N-(tetrahydro-2H-pyran-4-yl)picolinamide] | 53% | < 5.00 | < 5% | 
12 | Cc1c(Cc2ccc(-c3ccn(C)n3)cc2)cc(C(=O)N[C@H]2CCCC[C@@H]2O)nc1-n1cccn1 [Compound 41, N-((1S,2S)-2-hydroxycyclohexyl)-5-methyl-4-(4-(1-methyl-1H-pyrazol-3-yl)benzyl)-6-(1H-pyrazol-1-yl)picolinamide] | 79% | 5.11 | 26% | 6.51
13 | Cc1c(Cc2ccc(-c3ccn(C)n3)nc2)cc(C(=O)NC2CCOCC2)nc1-n1cccn1 [Compound 49, 5-methyl-4-((6-(1-methyl-1H-pyrazol-3-yl)pyridin-3-yl)methyl)-6-(1H-pyrazol-1-yl)-N-(tetrahydro-2H-pyran-4-yl)picolinamide] | 63% | < 5.00 | < 5% | 
